Assay results: ChEMBL document CHEMBL3627640 (Bioorg Med Chem, 2015)

Target: T1, Mitogen-activated protein kinase kinase kinase 7 (Homo sapiens, UniProt O43318)
T1 sequence (O43318 whole entry): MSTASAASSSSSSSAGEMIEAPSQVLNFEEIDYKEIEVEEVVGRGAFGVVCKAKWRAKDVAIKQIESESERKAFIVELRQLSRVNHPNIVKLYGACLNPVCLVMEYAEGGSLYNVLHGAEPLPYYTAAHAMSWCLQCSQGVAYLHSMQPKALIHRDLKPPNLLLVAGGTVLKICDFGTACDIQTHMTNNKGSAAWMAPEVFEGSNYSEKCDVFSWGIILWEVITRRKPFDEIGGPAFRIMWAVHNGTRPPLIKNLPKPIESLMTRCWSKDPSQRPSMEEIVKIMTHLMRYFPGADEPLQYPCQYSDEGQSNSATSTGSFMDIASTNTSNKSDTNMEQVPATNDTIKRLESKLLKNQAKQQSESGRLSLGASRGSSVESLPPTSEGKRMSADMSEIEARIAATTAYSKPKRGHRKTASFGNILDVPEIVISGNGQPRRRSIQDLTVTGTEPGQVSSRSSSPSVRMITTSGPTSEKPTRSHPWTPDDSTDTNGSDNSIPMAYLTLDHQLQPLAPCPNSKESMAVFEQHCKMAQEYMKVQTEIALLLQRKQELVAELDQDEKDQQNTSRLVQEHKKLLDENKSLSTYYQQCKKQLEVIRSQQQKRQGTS
Experiment: Inhibition of TAK1 (unknown origin)

SMILES: COc1cc(O)c2c(c1)/C=C/C[C@H](O)[C@H](O)C(=O)CCC[C@H](C)OC2=O
- IC50: 2.6 µM

SMILES: COc1cc(O)cc2c1C(=O)O[C@@H](C)CCCCC/C=C/C(=O)C2
- IC50: > 30 µM

SMILES: COc1cc(O)c2c(c1)/C=C/C[C@@H]1OC(CC(=O)[C@H]1O)C[C@H](C)OC2=O
- IC50: > 30 µM

SMILES: COc1cc(O)c2c(c1)[C@H]1O[C@@H]1C[C@H](O)[C@H](O)C(=O)CCC[C@H](C)OC2=O
- IC50: > 30 µM

SMILES: C/C=C/C=C\C(=O)[C@@H](O)[C@@H](O)C/C=C/c1cc(OC)cc(OC)c1C(=O)OC
- IC50: > 30 µM
